Laboratory results reported in the NIST ThermoML archive (doi:10.1016/j.jct.2017.07.013).
Numbers after ± are expanded uncertainties.

Experiments:
[1] = 101.3 kPa, Liquid; for speed of sound: Frequency=3 MHz, Single path-length method; for mass density: Vibrating tube method
[2] = refractive index (Na D-line) (dimensionless); conditions: 101.3 kPa, Liquid, Standard Abbe refractometry
[3] = xn = mol fraction of the nth substance listed; conditions: 101.3 kPa, Liquid, x2 = 0; for speed of sound: Frequency=3 MHz, Single path-length method; for mass density: Vibrating tube method
[4] = refractive index (Na D-line) (dimensionless); xn = mol fraction of the nth substance listed; conditions: 101.3 kPa, Liquid, Standard Abbe refractometry, x2 = 0

Structure (SMILES) | speed of sound ([1]; 303.15 K) [m/s] | mass density ([1]; 303.15 K) [kg/m3] | speed of sound ([1]; 308.15 K) [m/s] | mass density ([1]; 308.15 K) [kg/m3] | speed of sound ([1]; 313.15 K) [m/s] | mass density ([1]; 313.15 K) [kg/m3] | speed of sound ([1]; 318.15 K) [m/s] | mass density ([1]; 318.15 K) [kg/m3] | speed of sound ([1]; 323.15 K) [m/s] | mass density ([1]; 323.15 K) [kg/m3] | refractive index ([2]; 303.15 K) | refractive index ([2]; 308.15 K) | refractive index ([2]; 313.15 K) | refractive index ([2]; 318.15 K) | refractive index ([2]; 323.15 K) | also measured
COC(=O)OC [dimethyl carbonate] | 1177.3 ± 1.1 | 1056.8 ± 2 | 1155.6 ± 1.1 | 1050.2 ± 2 | 1134.2 ± 1.1 | 1043.5 ± 2 | 1113.1 ± 1.1 | 1036.8 ± 2 | 1092.2 ± 1.1 | 1030 ± 2 | 1.3648 ± 0.001 | 1.3629 ± 0.001 | 1.3626 ± 0.001 | 1.3601 ± 0.001 | 1.3586 ± 0.001 | –
CCCC[n+]1ccn(C)c1.O=S(=O)([N-]S(=O)(=O)C(F)(F)F)C(F)(F)F | 1216.8 ± 1.4 | 1428.9 ± 2.1 | 1205.8 ± 1.4 | 1424.1 ± 2.1 | 1195 ± 1.4 | 1419.4 ± 2.1 | 1184.2 ± 1.4 | 1414.6 ± 2.1 | 1173.6 ± 1.4 | 1409.9 ± 2.1 | 1.4245 ± 0.0011 | 1.4231 ± 0.0011 | 1.421 ± 0.0011 | 1.4195 ± 0.0011 | 1.4173 ± 0.0011 | –
COC(=O)OC [dimethyl carbonate] + CCCC[n+]1ccn(C)c1.O=S(=O)([N-]S(=O)(=O)C(F)(F)F)C(F)(F)F | – | – | – | – | – | – | – | – | – | – | – | – | – | – | – | speed of sound ([3]; 303.15 K): 1177.3 ± 1.1 m/s; mass density ([3]; 303.15 K): 1056.8 ± 2 kg/m3; speed of sound ([3]; 308.15 K): 1155.6 ± 1.1 m/s; mass density ([3]; 308.15 K): 1050.2 ± 2 kg/m3; speed of sound ([3]; 313.15 K): 1134.2 ± 1.1 m/s; mass density ([3]; 313.15 K): 1043.5 ± 2 kg/m3; speed of sound ([3]; 318.15 K): 1113.1 ± 1.1 m/s; mass density ([3]; 318.15 K): 1036.8 ± 2 kg/m3; speed of sound ([3]; 323.15 K): 1092.2 ± 1.1 m/s; mass density ([3]; 323.15 K): 1030 ± 2 kg/m3; refractive index ([4]; 303.15 K): 1.3648 ± 0.001; refractive index ([4]; 308.15 K): 1.3629 ± 0.001; refractive index ([4]; 313.15 K): 1.3626 ± 0.001; refractive index ([4]; 318.15 K): 1.3601 ± 0.001; refractive index ([4]; 323.15 K): 1.3586 ± 0.001
